Measured values: patent publication US9237747B2, “Herbicidal compositions comprising 4-amino-3-chloro-5-fluoro-6-(4-chloro-2-fluoro-3-methoxyphenyl) pyridine-2-carboxylic acid or a derivative thereof and insecticides” (priority 2013, dated 2016)
Counter-ions that a name gives are not always drawn. Like-named read-outs stand apart in the source and are kept apart here.

Columns and labels:
DIGSA = type: in vivo, Digitaria sanguinalis
Method: (§1) Seeds or nutlets of the desired test plant species were planted in a soil matrix prepared by mixing a loam or sandy loam soil (e.g., 28.6 percent silt, 18.8 percent clay, and 52.6 percent sand, with a pH of about 5.8 and an organic matter content of about 1.8 percent) and calcareous grit in an 80 to 20 ratio. The soil matrix was contained in plastic pots with a volume of 1 quart and a surface area of 83.6 square centimeters (cm^2). […] The plants were grown for 8-22 days in a greenhouse with an approximate 14 hour (h) photoperiod which was maintained at about 29° C. during the day and 26° C. during the night. Nutrients (Peters Excel® 15-5-15 5-Ca 2-Mg and iron chelate) were applied in the irrigation solution as needed and water was added on a regular basis. Supplemental lighting was provided with overhead metal halide 1000-Watt lamps as necessary. The plants were employed for testing when they reached the first through fourth true leaf stage.
(§2) Treatments consisted of the acid or esters of 4-amino-3-chloro-6-(4-chloro-2-fluoro-3-methoxyphenyl)-5-fluoropyridine-2-carboxylic acid (Compound A), each formulated as an SC (suspension concentrate), and various insecticidal components alone and in combination. Forms of compound A were applied on an acid equivalent basis.
(§3) For treatments comprised of formulated compounds, measured amounts of compounds were placed individually in 25 mL glass vials and diluted in a volume of 1.25% volume per volume (v/v) Agri-Dex® crop oil concentrate to obtain 12× stock solutions. […] Application solutions were prepared by adding an appropriate amount of each stock solution (e.g., 1 mL) and diluted to the appropriate final concentrations with the addition of […] of an aqueous mixture of 1.25% (v/v) crop oil concentrate so that the final spray solutions contained 1.25+/−0.05% (v/v) crop oil concentrate.
(§4) As required, additional water and/or 97:3 v/v acetone/DMSO was added to individual application solutions so that the final acetone and DMSO concentrations of the application solutions being compared were 8.1% and 0.25%, respectively.
(§5) All stock solutions and applications solutions were visually inspected for compound compatibility prior to application. Spray solutions were applied to the plant material with an overhead Mandel track sprayer equipped with 8002E nozzles calibrated to deliver 187 L/ha over an application area of 0.503 square meters (m^2) at a spray height of 18 to 20 inches (46 to 50 cm) above average plant canopy height. Control plants were sprayed in the same manner with the solvent blank.
(§6) The treated plants and control plants were placed in a greenhouse as described above and watered by sub-irrigation to prevent wash-off of the test compounds. After approximately 3 weeks, the condition of the test plants as compared to that of the untreated plants was determined visually and scored on a scale of 0 to 100 percent where 0 corresponds to no injury or growth inhibition and 100 corresponds to complete kill.
(§7) Colby's equation was used to determine the herbicidal effects expected from the mixtures (Colby, S. R. Calculation of the synergistic and antagonistic response of herbicide combinations. Weeds 1967, 15, 20-22.).
(§8) The following equation was used to calculate the expected activity of mixtures containing two active ingredients, A and B: Expected=A+B−(A×B/100)

ECHCG = type: in vivo, Echinochloa crus-galli
Method: as §1, §2, §3, §4, §5, §6, §7, §8

IPOHE = type: in vivo, Ipomoea hederacea
Method: as §1, §2, §3, §4, §5, §6, §7, §8

LEFCH = test: whole plant or invertebrate; type: in vivo, Leptochloa chinensis
Method: as §1, §2, §3, §4, §5, §6, §7, §8

BRAPP = test: Postemergence foliar-applied weed control, direct-seeded rice (greenhouse); type: in vivo, Brachiaria platyphylla
Text: (§9) Seeds or nutlets of the desired test plant species were planted in a soil matrix prepared by mixing a loam or sandy loam soil (e.g., 28.6 percent silt, 18.8 percent clay, and 52.6 percent sand, with a pH of about 5.8 and an organic matter content of about 1.8 percent) and calcareous grit in an 80 to 20 ratio. The soil matrix was contained in plastic pots with a volume of 1 quart and a surface area of 83.6 square centimeters (cm^2). When required to ensure good germination and healthy plants, a fungicide treatment and/or other chemical or physical treatment was applied. The plants were grown for 8-22 days in a greenhouse with an approximate 14 hour (h) photoperiod which was maintained at about 29° C. during the day and 26° C. during the night. Nutrients (Peters Excel® 15-5-15 5-Ca 2-Mg and iron chelate) were applied in the irrigation solution as needed and water was added on a regular basis. Supplemental lighting was provided with overhead metal halide 1000-Watt lamps as necessary. The plants were employed for testing when they reached the first through fourth true leaf stage.
as §2
(§10) Treatment requirements were calculated based upon the rates being tested, the concentration of active ingredient or acid equivalent in the formulation, and a 12 milliliter (mL) application volume at a rate of 187 liters per hectare (L/ha).
as §3, §4, §5, §6, §7, §8

CYPIR = type: in vivo, Cyperus iria
Text: as §9, §2, §10, §3, §4, §5, §6, §7, §8

ECHCO = test: Postemergence foliar-applied weed control, direct-seeded rice (greenhouse); type: in vivo, Echinochloa colonum; details: 19 DAA
Method: as §1, §2, §3, §4, §5, §6, §7, §8

CC1(C)C(C=C(Cl)Cl)C1C(=O)OC(C#N)c1cccc(Oc2ccccc2)c1 (racemic) [Cypermethrin, (RS)-α-cyano-3-phenoxybenzyl(1RS)-cis-trans-3-(2,2-dichlorovinyl)-2,2-dimethylcyclopropanecarboxylate, reference compound]
Visual Weed Control (%) - 21 DAA DIGSA Obs (DIGSA; 15 g ai/ha alone): 0%
Visual Weed Control (%) - 21 DAA DIGSA Obs (DIGSA; 30 g ai/ha alone): 0%
Visual Weed Control (%) - 21 DAA DIGSA Obs (DIGSA; 60 g ai/ha alone): 0%
Visual Weed Control (%) - 22 DAA ECHCG Obs (ECHCG; 7.5 g ai/ha alone): 0%
Visual Weed Control (%) - 22 DAA ECHCG Obs (ECHCG; 22.5 g ai/ha alone): 0%
Visual Weed Control (%) - 22 DAA ECHCG Obs (ECHCG; 60 g ai/ha alone): 0%
Visual Weed Control (%) - 22 DAA IPOHE Obs (IPOHE; 7.5 g ai/ha alone): 0%
Visual Weed Control (%) - 22 DAA IPOHE Obs (IPOHE; 22.5 g ai/ha alone): 0%
Visual Weed Control (%) - 22 DAA IPOHE Obs (IPOHE; 60 g ai/ha alone): 0%
pest or weed control at […] (LEFCH; Dinebra chinensis, post-emergence, 528 h, 7.5 g ai/ha alone, read-out: Visual Weed Control (%) - 22 DAA LEFCH Obs): 0%
pest or weed control at 22.5 g/ha (LEFCH; Dinebra chinensis, post-emergence, 528 h, 22.5 g ai/ha alone, read-out: Visual Weed Control (%) - 22 DAA LEFCH Obs): 0%
pest or weed control at 60 g/ha (LEFCH; Dinebra chinensis, post-emergence, 528 h, 60 g ai/ha alone, read-out: Visual Weed Control (%) - 22 DAA LEFCH Obs): 0%

N#Cc1nn(-c2c(Cl)cc(C(F)(F)F)cc2Cl)c(N)c1[S+]([O-])C(F)(F)F [Fipronil, 5-amino-[2,6-dichloro-4-(trifluoromethyl)phenyl]-4-[(1R,S)-(trifluoromethyl)sulfinyl]-1H-pyrazole-3-carbonitrile, reference compound]
Visual Weed Control (%) - 20 DAA BRAPP Obs (BRAPP; 50 g ai/ha alone): 0%
Visual Weed Control (%) - 20 DAA ECHCG Obs (ECHCG; 50 g ai/ha alone): 0%

spinosad [reference compound]
Visual Weed Control (%) - 21 DAA IPOHE Obs (IPOHE; 21 DAA, 70 g ai/ha alone): 0%
Visual Weed Control (%) - 21 DAA IPOHE Obs (IPOHE; 21 DAA, 140 g ai/ha alone): 0%
Visual Weed Control (%) - 21 DAA IPOHE Obs (IPOHE; 21 DAA, 280 g ai/ha alone): 0%
Visual Weed Control (%) - 21 DAA LEFCH Obs (LEFCH; 140 g ai/ha alone): 0%
Visual Weed Control (%) - 21 DAA LEFCH Obs (LEFCH; 280 g ai/ha alone): 0%

CN(C)C(CSC(N)=O)CSC(N)=O [Cartap Hydrochloride, S,S′-(2-dimethylaminotrimethylene)bis(thiocarbamate), reference compound]
Visual Weed Control (%) - 22 DAA ECHCG Obs (ECHCG; 250 g ai/ha alone): 0%
Visual Weed Control (%) - 22 DAA ECHCG Obs (ECHCG; 500 g ai/ha alone): 0%
Visual Weed Control (%) - 22 DAA IPOHE Obs (IPOHE; 250 g ai/ha alone): 10%
Visual Weed Control (%) - 22 DAA IPOHE Obs (IPOHE; 500 g ai/ha alone): 0%

COP(=O)(NC(C)=O)SC (stereo not drawn) [Acephate, O,S-dimethyl acetylphosphoramidothioate]
Visual Weed Control (%) - 21 DAA BRAPP Obs (BRAPP; 140 g ai/ha alone): 0%
Visual Weed Control (%) - 21 DAA BRAPP Obs (BRAPP; 280 g ai/ha alone): 0%
Visual Weed Control (%) - 21 DAA BRAPP Obs (BRAPP; 560 g ai/ha alone): 0%
Visual Weed Control (%) - 21 DAA CYPIR Obs (CYPIR; 140 g ai/ha alone): 0%
Visual Weed Control (%) - 21 DAA CYPIR Obs (CYPIR; 280 g ai/ha alone): 0%
Visual Weed Control (%) - 21 DAA CYPIR Obs (CYPIR; 560 g ai/ha alone): 0%
Visual Weed Control (%) - 21 DAA IPOHE Obs (IPOHE; 280 g ai/ha alone): 10%

spinetoram
Visual Weed Control (%) - 19 DAA ECHCO Obs (ECHCO; 30 g ai/ha alone): 0%
Visual Weed Control (%) - 19 DAA ECHCO Obs (ECHCO; 60 g ai/ha alone): 0%
Visual Weed Control (%) - 19 DAA ECHCO Obs (ECHCO; 120 g ai/ha alone): 0%
Visual Weed Control (%) - 19 DAA LEFCH Obs (LEFCH; 30 g ai/ha alone): 0%
Visual Weed Control (%) - 19 DAA LEFCH Obs (LEFCH; 60 g ai/ha alone): 0%
Visual Weed Control (%) - 19 DAA LEFCH Obs (LEFCH; 120 g ai/ha alone): 0%
